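Test compounds were applied to cells in 96-well plates for 48 hours at 5 doses. At the GI50, growth is halved. TGI marks complete inhibition of growth.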
Legend:
Experiment in all cases: inhibition of tumour cell growth, NCI panel, 48 h
[1] = system: EKVX NSCLC
[2] = system: IGROV1 ovarian
[3] = system: M14 melanoma
[4] = system: MALME-3M melanoma
[5] = system: OVCAR-5 ovarian
[6] = system: OVCAR-8 ovarian
[7] = system: PC-3 prostate
[8] = system: RPMI-8226 leukemia
[9] = system: SK-MEL-2 melanoma
[10] = system: SNB-19 CNS

Compound	GI50 [1] [µM]	TGI [1] [µM]	GI50 [2] [µM]	TGI [2] [µM]	GI50 [3] [µM]	TGI [3] [µM]	GI50 [4] [µM]	TGI [4] [µM]	GI50 [5] [µM]	TGI [5] [µM]	GI50 [6] [µM]	TGI [6] [µM]	GI50 [7] [µM]	TGI [7] [µM]	GI50 [8] [µM]	TGI [8] [µM]	GI50 [9] [µM]	TGI [9] [µM]	GI50 [10] [µM]	TGI [10] [µM]
O=C(Nc1cccc(-n2ccc3c(NC(=O)c4ccccc4)nccc32)c1)Nc1cc(C(F)(F)F)cc(C(F)(F)F)c1	2.63	> 50	2.46	> 50	1.11	2.56	3.09	35.8	1.71	> 50	1.65	5.14	1.58	> 50	1.13	2.85	1.32	4.68	2.32	> 50
Oc1ccc(-c2nc(-c3cccnc3)c(-c3ccc(Cl)cc3)[nH]2)cc1O	–	50.2	–	18.6	–	26.4	–	27	–	35.3	–	30.2	–	21.2	–	> 100	–	31.8	–	27.1
COC(=O)/C=C\n1c(C)cc(=O)[nH]c1=O	–	> 100	–	> 100	–	> 100	–	> 100	–	> 100	–	> 100	–	> 100	–	> 100	–	> 100	–	> 100
Cc1ccc(S(=O)(=O)N/N=C(\c2nc3ccc(Cl)cc3[nH]c2=O)C(O)c2cccc([N+](=O)[O-])c2)cc1 (stereo unspecified)	–	> 100	–	> 100	–	> 100	–	> 100	–	> 100	–	> 100	–	–	–	> 100	–	> 100	–	> 100
Cn1c(=O)c(C(=O)Nc2nc(C34CC5CC(CC(C5)C3)C4)cs2)c(O)c2ccccc21	–	> 100	–	> 100	–	–	–	> 100	–	> 100	–	> 100	–	> 100	–	> 100	–	–	–	> 100
CCCCCCCCOC1C(O)C(O)C(O)C(O)C12CO2 (stereo unspecified)	–	–	–	> 100	–	–	–	> 100	–	–	–	> 100	–	> 100	–	> 100	–	> 100	–	> 100
CC(O)c1cc2c(s1)C(=O)c1sccc1C2=O (stereo unspecified)	–	0.674	–	0.725	–	0.0494	–	0.0486	–	0.368	–	0.616	–	1.43	–	–	–	0.215	–	0.292
Cc1c(Cl)c2ccccc2n1S(=O)(=O)c1ccccc1	–	–	–	> 100	–	> 100	–	> 100	–	> 100	–	> 100	–	–	–	86	–	> 100	–	> 100
O=C(/C=C/c1ccc(O)c(O)c1)OCCCc1ccccc1	–	63.8	–	12.1	–	22.6	–	25.4	–	37.3	–	–	–	24.4	–	49.4	–	46.4	–	33.6
COC(=O)/C(=C\Nc1cccc(C)n1)S(=O)(=O)c1ccc(C)cc1	–	–	–	> 100	–	> 100	–	> 100	–	> 100	–	> 100	–	> 100	–	> 100	–	> 100	–	> 100
CCOC(=O)C1(C/C=C(/C)Cl)CCCC1=O (stereo unspecified)	–	> 100	–	> 100	–	> 100	–	> 100	–	> 100	–	> 100	–	–	–	53.6	–	> 100	–	> 100
COC(=O)/C=C1/CCC(C(=O)OC)N1 (stereo unspecified)	–	> 100	–	> 100	–	> 100	–	–	–	–	–	> 100	–	–	–	> 100	–	> 100	–	> 100
COc1ccc(-c2cc(=O)c3cc4c(cc3[nH]2)OCO4)cc1OC	–	> 100	–	> 100	–	> 100	–	> 100	–	–	–	> 100	–	–	–	> 100	–	> 100	–	> 100
CCOC(=O)C1=CNC(C(=O)OCC)C1c1cccn1-c1ccc(Cl)cc1[N+](=O)[O-] (stereo unspecified)	–	75.9	–	29.9	–	44.9	–	–	–	60.3	–	90.6	–	68.9	–	–	–	34.8	–	–
CC(C)(C)N=NNc1cn(C2OC(CO)C(O)C2O)c(=O)[nH]c1=O (stereo unspecified)	–	> 100	–	> 100	–	> 100	–	> 100	–	> 100	–	> 100	–	–	–	42.7	–	> 100	–	> 100
OC(c1cc2ccccc2o1)c1cc2ccccc2s1 (stereo unspecified)	–	> 10	–	> 10	–	> 10	–	–	–	> 10	–	> 10	–	> 10	–	> 10	–	> 10	–	> 10
COC(=O)C1Cc2c(OC)ccc(OC)c2CC(C(=O)OC)C1=O (stereo unspecified)	–	> 100	–	> 100	–	> 100	–	> 100	–	> 100	–	> 100	–	> 100	–	> 100	–	–	–	> 100
N#CC1=C(N)n2c(s/c(=C\c3ccc(Cl)cc3)c2=O)=C(c2nc3ccccc3[nH]2)C1c1ccc(Cl)cc1 (stereo unspecified)	–	3.52	–	9.71	–	11.5	–	4.74	–	3.66	–	3.78	–	–	–	4.65	–	4.21	–	> 100
Cc1nc(C)c(C(=O)NNC(N)=S)cc1C(=O)NNC(N)=S	–	> 100	–	> 100	–	> 100	–	–	–	> 100	–	> 100	–	> 100	–	> 100	–	> 100	–	> 100
CC(=O)[C@@]1(C)CC2(CCN(C)CC2)OC1C (stereo partly specified)	–	> 100	–	> 100	–	> 100	–	> 100	–	> 100	–	> 100	–	–	–	> 100	–	–	–	> 100
CC1(C)N=C(C(N)=O)c2ncn(N)c2N1	–	> 100	–	> 100	–	> 100	–	> 100	–	> 100	–	> 100	–	> 100	–	> 100	–	–	–	> 100
CC[C@]12C=CCN3CC[C@@]4(c5cc(Br)c(OC)cc5N(C)[C@H]4[C@@](O)(C(=O)NN)[C@@H]1O)[C@@H]32	–	> 100	–	> 100	–	> 100	–	> 100	–	> 100	–	> 100	–	> 100	–	–	–	70.6	–	> 100
